Measurements taken from publication PMC6717395 (Drug Design, Development and Therapy, 2019).

How the values were obtained:
DPPH antioxidant assay = conditions: for DPPH % inhibition (mean ± S.E.M): n=3; for DPPH IC50: DPPH radical scavenging
ABTS antioxidant assay = conditions: for ABTS percent inhibition (mean ± S.E.M): n=3; for ABTS IC50: ABTS radical scavenging
[1] = target: acetylcholinesterase (AChE) (Homo sapiens, UniProt P22303); test: biochemical
[2] = target: butyrylcholinesterase (BChE) (Homo sapiens, UniProt P06276); test: Anticholinesterase assay; type: biochemical
Chain of butyrylcholinesterase (BChE) (P06276 29-602, species assumed): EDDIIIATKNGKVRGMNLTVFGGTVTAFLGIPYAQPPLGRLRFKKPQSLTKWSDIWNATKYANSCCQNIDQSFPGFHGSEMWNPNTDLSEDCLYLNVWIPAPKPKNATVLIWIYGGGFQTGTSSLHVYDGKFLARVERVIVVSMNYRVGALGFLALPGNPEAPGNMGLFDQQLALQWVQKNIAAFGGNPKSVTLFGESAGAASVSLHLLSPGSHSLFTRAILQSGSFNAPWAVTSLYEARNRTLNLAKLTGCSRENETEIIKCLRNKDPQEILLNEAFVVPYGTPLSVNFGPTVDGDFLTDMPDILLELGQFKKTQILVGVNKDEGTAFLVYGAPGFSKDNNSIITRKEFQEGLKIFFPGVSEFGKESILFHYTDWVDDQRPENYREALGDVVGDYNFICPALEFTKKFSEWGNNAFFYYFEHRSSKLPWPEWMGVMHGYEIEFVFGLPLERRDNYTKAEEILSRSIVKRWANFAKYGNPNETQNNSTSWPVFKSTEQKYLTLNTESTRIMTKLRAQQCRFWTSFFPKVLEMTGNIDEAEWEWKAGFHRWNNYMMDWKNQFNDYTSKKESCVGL

[3] = read-out: Percent BChE (mean ± SEM) inhibition

Chain of acetylcholinesterase (AChE) (P22303 32-614, species assumed): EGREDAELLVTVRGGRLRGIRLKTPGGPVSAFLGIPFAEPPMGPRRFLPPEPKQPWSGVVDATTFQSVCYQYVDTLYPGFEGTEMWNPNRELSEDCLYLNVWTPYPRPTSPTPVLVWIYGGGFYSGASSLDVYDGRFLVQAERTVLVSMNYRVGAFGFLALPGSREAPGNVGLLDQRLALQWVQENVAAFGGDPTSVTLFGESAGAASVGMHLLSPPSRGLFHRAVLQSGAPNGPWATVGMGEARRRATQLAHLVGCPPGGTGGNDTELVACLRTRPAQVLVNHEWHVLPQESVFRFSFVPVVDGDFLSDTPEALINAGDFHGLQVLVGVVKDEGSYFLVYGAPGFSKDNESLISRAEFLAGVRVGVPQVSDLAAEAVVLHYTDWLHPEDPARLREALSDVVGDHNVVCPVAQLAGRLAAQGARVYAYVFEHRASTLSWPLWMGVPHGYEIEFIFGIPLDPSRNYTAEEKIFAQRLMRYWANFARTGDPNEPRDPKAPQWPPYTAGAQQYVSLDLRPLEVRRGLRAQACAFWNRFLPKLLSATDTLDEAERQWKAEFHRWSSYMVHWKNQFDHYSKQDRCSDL

Compound	DPPH % inhibition (mean ± S.E.M) (DPPH antioxidant assay; 62.5 μg/mL)	DPPH % inhibition (mean ± S.E.M) (DPPH antioxidant assay; 125 μg/mL)	DPPH % inhibition (mean ± S.E.M) (DPPH antioxidant assay; 250 μg/mL)	DPPH % inhibition (mean ± S.E.M) (DPPH antioxidant assay; 500 μg/mL)	DPPH % inhibition (mean ± S.E.M) (DPPH antioxidant assay; 1000 μg/mL)	DPPH IC50 (DPPH antioxidant assay)	ABTS percent inhibition (mean ± S.E.M) (ABTS antioxidant assay; 62.5 μg/mL)	ABTS percent inhibition (mean ± S.E.M) (ABTS antioxidant assay; 125 μg/mL)	ABTS percent inhibition (mean ± S.E.M) (ABTS antioxidant assay; 250 μg/mL)	ABTS percent inhibition (mean ± S.E.M) (ABTS antioxidant assay; 500 μg/mL)	ABTS percent inhibition (mean ± S.E.M) (ABTS antioxidant assay; 1000 μg/mL)	ABTS IC50 (ABTS antioxidant assay)	inhibition at 62.5 µg/mL [2, 3]	also measured
O=C1O[C@H]([C@@H](O)CO)C(O)=C1O [Ascorbic acid, reference compound]	55.05±1.54%	65.30±2.05%	78.89±1.34%	87.21±0.75%	94.88±1.63%	35 mg/L	55.51±1.09%	64.06±1.15%	77.64±3.06%	83.76±1.16%	93.41±0.73%	35 mg/L		
O=C(O)CCCCC(=O)O [Compound VIII, Hexanedioic acid]	41.17±1.97 %	51.10±2.39 %	63.13±2.17 %	72.84±1.87 %	81.64±2.76 %	118 mg/L	41.70±1.06 %	50.02±1.11 %	62.19±0.90 %	70.10±1.20 %	80.23±1.37 %	125 mg/L	40.6 ± 1.06%	IC50 [1]: 835 µM; inhibition at 62.5 µg/mL ([1]; read-out: Percent AChE (mean ± SEM) inhibition, 62.5 μg/mL, n=3): 41.7 ± 3.01%; inhibition at 125 µg/mL ([1]; read-out: Percent AChE (mean ± SEM) inhibition, 125 μg/mL, n=3): 50.3 ± 2.1%; inhibition at 250 µg/mL ([1]; read-out: Percent AChE (mean ± SEM) inhibition, 250 μg/mL, n=3): 62.1 ± 2.41%; inhibition at 500 µg/mL ([1]; read-out: Percent AChE (mean ± SEM) inhibition, 500 μg/mL, n=3): 71.2 ± 2.37%; inhibition at 1000 µg/mL ([1]; read-out: Percent AChE (mean ± SEM) inhibition, 1000 μg/mL, n=3): 79.6 ± 2.1%; IC50 [2]: 848 µM; inhibition at 125 µg/mL [2, 3]: 50.1 ± 2.16%; inhibition at 250 µg/mL [2, 3]: 61.2 ± 2.1%; inhibition at 500 µg/mL [2, 3]: 71.3 ± 1.1%; inhibition at 1000 µg/mL [2, 3]: 78.2 ± 1.31%
COc1ccc2c3c1O[C@H]1C[C@@H](O)C=C[C@@]31CCN(C)C2 [Galanthamine, reference compound]													53.5 ± 1.69%	
